Patent US20150259645A1, “METHOD FOR INDUCING IL-2-FREE PROLIFERATION OF GAMMA DELTA T CELLS” (INSERM (INSTITUT NATIONAL DE LA SANTÉ ET DE LA RECHERCHE …, priority 2012, published 2015)

Tested on: Vγ9Vδ2 T lymphocytes
Assay: CFSE dilution proliferation assay in PBMC culture, flow cytometry
Type: cell-based, human
Details: 100 nM BrHPP; six days culture of PBMC; FIG. 1A
Method: Fresh blood samples were collected from healthy donors, and PBMC were prepared on a Ficoll-Paque density gradient (Amersham Biosciences AB, Upssala, Sweden) by centrifugation (800 g, 30 min at room temperature).
Cell cultures were performed in complete medium: RPMI 1640 supplemented by penicillin 100 UI/ml, streptomycin 100 μg/ml, L-glutamin 2 mM, sodium pyruvate 1 mM and 10% FCS.
PBMC or PBL were labeled with 0.125 μM CFSE (Invitrogen, France) for 8 min at 37° C. and cultured in 96-well plates (3.10^5 cells per well) in 200 μl of complete medium with or without BrHPP [100 nM], IL-33 [0-1000 ng/ml] and with or without rhIL-2 [10 UI/ml] (Sanofi Aventis, France). After six days in culture CFSE dilution was evaluated in γδ T cells (CD3^+ γ9 TCR cells) by flow cytometry.
The IL-33 forms used in this example was the natural cleavage product of human IL-33 (IL-33 aa 95-270) and the truncated form of human IL-33 (IL-33 aa 112-270).
Anti-TCR γ9-APC and anti-CD3-Pacific blue were used to select Vγ9Vδ2 T lymphocytes by flow cytometry.
We studied the effect of IL-33 in combination with the specific phosphoantigen, BrHPP, on the proliferation of human Vγ9Vδ2 T lymphocytes. […] After six days in culture, the proliferation of Vγ9Vδ2 T lymphocytes was analyzed by the reduction of the CFSE fluorescence intensity on the Vγ9Vδ2 T lymphocytes gated by flow cytometry.

In the case of `CC(O)(CBr)CCOP(=O)(O)OP(=O)(O)O` (stereo not shown) [BrHPP], the “proliferation of Vγ9Vδ2 T lymphocytes (CFSE dilution)” value is reported as “induces the proliferation”.
